Reference: patent US12569542B2, “Treatment of cancer with immune stimulators” (SciClone Pharmaceuticals International (SG) PTE. LTD., priority 2014, dated 2026)
Where two headings read alike, the source gives them in different places. Where no end group is shown, it is not given here.

Experiments:
B16F10 murine melanoma [1] = assay: Subcutaneous B16F10 murine melanoma model, cisplatin positive control (separate historical control study); type: in vivo, mice
Text: (§1) B16F10 murine melanoma model is derived from MB16 line by successive selection of metastatic clones. B16F1 to B16F10 (ATCC Number CRL-6475™) were generated, with F10 being passaged in mice for 10 times, and thus highly metastatic. This model is widely used in studying metastasis mechanisms, evaluating cancer therapeutics. It is also one of the most common syngeneic models for cancer immunotherapy. Both subcutaneous and experimental metastasis models are very useful.
(§2) Tumor volumes and body weights were monitored throughout the study. Cisplatin was administered to the positive control group in a separate historical control study. The negative control group was administered with vehicle only in all studies.
B16F10 mice treated with cisplatin typically show reduced tumor volume (FIG. 1A and Table 3).

IL-1β [2] = assay: Biomarker evaluation in subcutaneous B16F10 murine melanoma model (FIG. 4D); type: in vivo, C57BL/6 mice; details: subcutaneously twice a day for 6 days at 0.02, 0.06, 0.2, 0.3, 2, or 6 mg/kg, D4 and D7 after start of dosing
Procedure: (§3) FIG. 4D depicts evaluation of IL-1β in subcutaneous B16F10 murine melanoma model in C57BL/6 mice treated with thymosin. ZADAXIN™ (thymalfasin) was administered to mice subcutaneously twice a day for 6 days at 0.02, 0.06, 0.2, 0.3, 2, or 6 mg/kg 10 μL/g. IL-1β levels were lower in ZADAXIN™ (thymalfasin) treated groups compared to vehicle treated groups at D4 and D7 after start of dosing.
(§4) In the studies described above, a group of potential biomarkers were tested in, including IL-7, 11-18, TREM-1, IFN-α, procalcitonin, GM-CSF, IL-1α, IFN-γ, TNF a, IL-2, IL-4, IL-5, IL-6, IL-10, IL-12p70, and IL-1β.

[3] = tested on: B16-F10 cells (lung metastases); details: for Mean Met Count / Percent Inhibition: Day 16; for Mean Met Count: SR1 220.51 μg/animal sc bid to end, Anti-PD-1-SCE 100 μg/animal ip biwk ×3, combination at the same doses, Cyclophosphamide 300 mg/kg ip Qd ×1; for Percent Inhibition: [1 − (T/C)] × 100, compared to Group 1 (vehicle); for Deaths NTR (non-treatment-related death) / Deaths TR (treatment-related death): n = 10 per group
Procedure: (§5) The animals were fed ad libitum water (reverse osmosis, 1 ppm Cl) and NIH 31 Modified and Irradiated Lab Diet® consisting of 18.0% crude protein, 5.0% crude fat, and 5.0% crude fiber. The mice were housed on irradiated Enrich-o'cobs™ bedding in static microisolators on a 12-hour light cycle at 20-22° C. (68-72° F.) and 40-60% humidity. DRS-NC specifically complies with the recommendations of the Guide for Care and Use of Laboratory Animals with respect to restraint, husbandry, surgical procedures, feed and fluid regulation, and veterinary care. The animal care and use program at DRS-NC is accredited by the Association for Assessment and Accreditation of Laboratory Animal Care International, which assures compliance with accepted standards for the care and use of laboratory animals.
(§6) A sixth group of animals was included as the “look-see” group (n=9). B16-F10 cells were harvested during log-phase growth and resuspended at a concentration of 7.5×10^5 cells/mL in PBS. Each mouse received an intravenous (i.v.) tail vein injection of 1.5×10^5 B16-F10 cells (0.2 mL cell suspension) on D1 of the study.
(§7) Test Articles: Anti-PD1 alpha peptide (coded as anti-PD-1-SCE, Lot. No. 5177/0214) and thymosin alpha-1 peptide (Thymalfasin, code-named SR1, Lot. No. 1402-224). DRS-NC assigned code names for the purpose of confidentiality during in-house testing. […] Dosing was not adjusted per body weight. Anti-PD-1-SCE antibody was diluted in PBS to yield a 10.0 mg/mL dosing solution, which provided a 100 mg/kg dosage in a dosing volume of 10 mL/kg. Dosing was not adjusted per body weight. […] Dosing was adjusted per body weight.
(§8) Endpoint: The endpoint of the B16MET-e117 study was defined as 100 metastases per lung set. Two to three animals from the “look-see” group were euthanized in three days intervals beginning on Day 9 and lung metastatic foci were counted. […] The study was terminated on D16 and all animals were euthanized and their metastases counted. Percent inhibition was defined as the difference between the number of metastatic foci of the designated control group and the number of metastatic foci of the drug-treated group, expressed as a percentage of the number of metastatic foci of the designated control group: % Inhibition=[1−(#Focidrug-treated/#Focicontrol)]×100
(§9) Toxicity: Animals were weighed daily for the first five days of the study and twice weekly thereafter. […] Acceptable toxicity was defined as a group mean body-weight loss of less than 20% during the study and not more than one treatment-related (TR) death among ten treated animals. Any dosing regimen resulting in greater toxicity is considered above the maximum tolerated dose (MTD). A death is classified as TR if attributable to treatment side effects as evidenced by clinical signs and/or necropsy, or if due to unknown causes during the dosing period or within fourteen days of the last dose. A death is classified as non-treatment-related (NTR) if there is no evidence that death was related to treatment side effects.
Statistical and Graphical Analyses: Prism (GraphPad) for Windows 6.02 was used for all graphical presentations and statistical analyses. The Mann-Whitney U-test, for analysis of medians, was used to determine the statistical significance between D16 B16F10 metastatic foci in control and treated groups. Two-tailed statistical analyses were conducted at P=0.05. A “box and whiskers” diagram was constructed to show the distribution of enumerated metastatic foci for each treatment group on D16.
Prism reports results as non-significant (ns) at P>0.05, significant (symbolized by “*”) at 0.01<P≤0.05, very significant (“**”) at 0.001<P≤0.01, and extremely significant (“***”) at P≤0.001.

IL-4 = assay: Biomarker evaluation in subcutaneous B16F10 murine melanoma model (FIG. 4B); type: in vivo, C57BL/6 mice; details: subcutaneously twice a day for 6 days at 0.02, 0.06, 0.2, 0.3, 2, or 6 mg/kg, D4 and D7 after start of dosing
Procedure: as §3, with “4B” for “4D”, “IL-4” for “IL-1β”, “higher” for “lower”
as §4

B16F10 murine melanoma [4] = assay: Subcutaneous B16F10 murine melanoma model, thymosin (Study No. 1 and Study No. 2); type: in vivo, C57BL/6 mice; details: for mean tumor size / T/C value: day 14 post tumor inoculation; for tumor growth delay: at tumor size of 1,140 mm^3
Text: as §1
To study the effect of thymosin in treating melanoma, thymosin alpha peptide (ZADAXIN) was administered to mice inoculated with B16F10 in two separate studies:
as §2

[5] = tested on: B16-F10 cells (lung metastases); details: for Mean Met Count: Day 15; for Inhibition (%): compared to Group 1; for Deaths NTR / Deaths TR: n = 10
Procedure: as §5, §6, §7, §8, §9
B16F10 Mouse Lung Metastatic Melanoma Model was developed. About 1.5×10^5 B16-F10 cells (0.2 mL cell suspension) were grown in vitro and administered intravenously (Day 0) to female B6D2F1/Crl mice. On Day 1 dosing with test agents initiated.
A “look see”-untreated-group was set to evaluate, over a period of 15 days, the number of metastasis. […] Three days later other three mice were examined. When the met count reached approximately 50-100 counts, all groups in the study were sacrificed and final met counts were established. The “look see” group count was not included in the final efficacy analysis. 50-100 met count defined as the target number because most of the individual metastasis could be count easily and mets were less likely to merge with each other difficulty the counting.

IL-6 = assay: Biomarker evaluation in subcutaneous B16F10 murine melanoma model (FIG. 4C); type: in vivo, C57BL/6 mice; details: subcutaneously twice a day for 6 days at 0.02, 0.06, 0.2, 0.3, 2, or 6 mg/kg, D4 and D7 after start of dosing
Procedure: as §3, with “4C” for “4D”, “IL-6” for “IL-1β”
as §4

IL-1β [6] = assay: Biomarker evaluation in subcutaneous B16F10 murine melanoma model (FIG. 4A); type: in vivo, C57BL/6 mice; details: subcutaneously twice a day for 6 days at 0.02, 0.06, 0.2, 0.3, 2, or 6 mg/kg, D4 and D7 after start of dosing
Procedure: as §3, with “4A” for “4D”
as §4

[7] = tested on: B16F10 Murine Melanoma (lung metastasis foci); assay: Systemic B16F10 murine melanoma model, lung metastasis foci (independent laboratory); type: in vivo, C57BL/6 mice
[8] = Group 2: SR1 0.4862 μg/animal sc bid to end
[9] = Group 3: SR1 4.86 μg/animal sc bid to end
[10] = Group 4: SR1 48.62 μg/animal sc bid to end
[11] = Group 13: Cyclophosphamide 300 mg/kg ip qd ×1
[12] = Group 13: Cyclophosphamide 300 mg/kg
[13] = Group 9: Cyclophosphomide 300 mg/kg

In the case of `N.N.[Cl][Pt][Cl]` [Cisplatin], the “Tumor Size (mm^3) on Day 28” value (B16F10 murine melanoma [1]; B16F10 mice treated with cisplatin, Day 28, historical control study) is reported as 862 ± 233 mm^3, the body weight (B16F10 murine melanoma [1]; B16F10 mice treated with cisplatin, FIG. 1B, result of the toxicity of cisplatin) is reported as “significantly reduced body weight” and the “T/C Value (%) on Day 28” value (B16F10 murine melanoma [1]; cisplatin vs vehicle, Day 28) is reported as 30%. The “T-C (days) at 800 mm^3” value (B16F10 murine melanoma [1]; cisplatin vs vehicle, at tumor size 800 mm^3) was over 4 days.
For “thymosin alpha 1 (Ac-SDAAVDTSSEITTKDLKEKKEVVEEAEN) [TA1, synthetic version sold as ZADAXIN (thymalfasin); code-named SR1]”, the “IL-1β levels compared to vehicle treated groups (FIG. 4D)” value (IL-1β [2]) was “lower”, the “Mean Met Count” value [3] was 72.5 and the “metastases to lung in melanoma model” value ([3]; Study I) was “decreases metastases to lung”. The “Percent Inhibition” value ([3]; doses as E23) was 31.5%, the “Deaths NTR (non-treatment-related death)” value ([3]; doses as E23) was 0 and the “Deaths TR (treatment-related death)” value ([3]; doses as E23) was 0. The “IL-4 levels compared to vehicle treated groups” value (IL-4) was “higher”, the “tumor growth compared with vehicle treated group” value (B16F10 murine melanoma [4]; all doses tested, FIG. 2 and FIG. 3) was “reduced tumor growth” and the “tumor growth compared with vehicle treated group (FIG. 3)” value (B16F10 murine melanoma [4]; several different doses, all tested doses) was “statistically significant reduced tumor growth”. For the same compound, the mean tumor size (B16F10 murine melanoma [4]; study I, TA1 0.2 mg/kg bid i.p. for 7 days) was 1,148 mm^3, the tumor growth delay (B16F10 murine melanoma [4]; study I, TA1 0.2 mg/kg) was 1.5 days and the T/C value (B16F10 murine melanoma [4]; study I, TA1 0.2 mg/kg) was 57.56%. For the same compound, the mean tumor size (B16F10 murine melanoma [4]; study I, TA1 2 mg/kg bid i.p. for 7 days) was 1,384 mm^3, the tumor growth delay (B16F10 murine melanoma [4]; study I, TA1 2 mg/kg) was 0.5 days and the T/C value (B16F10 murine melanoma [4]; study I, TA1 2 mg/kg) was 69.36%. The tumor growth (B16F10 murine melanoma [4]; study I, TA1 6 mg/kg, decrease didn't reach a significant difference) was “can delay tumor growth”, the “weight changes by group” value (B16F10 murine melanoma [4]; thymosin treated B16F10 mice) was “no significant weight changes” and the “Mean Met Count” value [5, 8] was 186. For the same compound, the Inhibition (%) [5, 8] was −17%, the “Deaths NTR” value ([5]; Group 2: SR1 0.4862 μg/animal) was 0 and the “Deaths TR” value ([5]; Group 2: SR1 0.4862 μg/animal) was 0. For the same compound, the “Mean Met Count” value [5, 9] was 182, the Inhibition (%) [5, 9] was −14% and the “Deaths NTR” value ([5]; Group 3: SR1 4.86 μg/animal) was 0. The “Deaths TR” value ([5]; Group 3: SR1 4.86 μg/animal) was 0, the “Mean Met Count” value [5, 10] was 167 and the Inhibition (%) [5, 10] was −5%. The “Deaths NTR” value ([5]; Group 4: SR1 48.62 μg/animal) was 0, the “Deaths TR” value ([5]; Group 4: SR1 48.62 μg/animal) was 0 and the “IL-6 levels compared to vehicle treated groups” value (IL-6) was “lower”. The “IL-1β levels compared to vehicle treated groups” value (IL-1β [6]) was “lower”, the “Inhibition (%)” value ([7]; Group 3: TA1 0.486 μg/mouse) was 20.35% and the “Number of metastasis foci on day 13 (Mean ± SEM)” value (“Number … (Mean ± SEM)” below) ([7]; Group 3: TA1 0.486 μg/mouse) was 92 ± 9. The “Inhibition (%)” value ([7]; Group 4: TA1 4.86 μg/mouse) was 41.83%, the “Number … (Mean ± SEM)” value ([7]; Group 4: TA1 4.86 μg/mouse) was 67 ± 12 and the “Inhibition (%)” value ([7]; Group 5: TA1 48.6 μg/mouse) was 42.26%. For the same compound, the “Number … (Mean ± SEM)” value ([7]; Group 5: TA1 48.6 μg/mouse) was 66 ± 10.
With `O=P1(N(CCCl)CCCl)NCCCO1` (centres unmarked) [Cyclophosphamide] the “Mean Met Count” value [3] was 0.5, the “Percent Inhibition” value ([3]; doses as E23) was 99.5% and the “Mean BW Nadir” value ([3]; lowest group mean body weight, as % change from Day 1, Cyclophosphamide nadir on Day 3, doses as E23) was −4.3%. For the same compound, the “Deaths NTR (non-treatment-related death)” value ([3]; doses as E23) was 0, the “Deaths TR (treatment-related death)” value ([3]; doses as E23) was 0 and the “Mean Met Count” value [5, 11] was 2. The Inhibition (%) [5, 11] was 99%, the “Mean BW Nadir” value ([5]; Group 13: Cyclophosphamide 300 mg/kg, % change from Day 1, nadir Day 2) was −8.0% and the “Deaths NTR” value [5, 12] was 0. For the same compound, the “Deaths TR” value [5, 12] was 0, the “Inhibition (%)” value [7, 13] was 100% and the “Number … (Mean ± SEM)” value [7, 13] was 0 ± 0.
